{
  "source": "patent US8871460B2",
  "about": "“Gamma-secretase modulatory compounds, methods for identifying same, and uses therefor” (Neurogenetic Pharmaceuticals, Inc., priority 2009, dated 2014)",
  "key": {"[1]": {"test_system": "ε-cleavage of a gamma-secretase substrate, Notch", "assay": "Epsilon cleavage assay: Notch (NICD) in HEK293 cells overexpressing APP751 and NΔE/S2", "format": "cell-based", "settings": "18 h", "description": "The effect of Compound 2 treatment on ε-cleavage of a gamma-secretase substrate, Notch, was assessed using an HEK293 clonal cell line overexpressing APP751 and the Notch construct NΔE/S2. The NΔE/S2 construct lacks most of the extracellular domain of Notch (Schroeter et al. (1998) Nature 393:382-386), and when cleaved by γ-secretase results in production of the Notch intracellular domain (NICD). The cells were plated in replicate 24-well dishes and treated in triplicate with 30 μM of Compound 2, 1 μM of the gamma secretase inhibitor N—[N-(3,5-Difluorophenacetyl-L-alanyl)]S-phenylglycine t-butyl ester (DAPT), or vehicle (0.12% DMSO), for 18 h. Following compound treatment, conditioned medium was collected and analyzed for levels of secreted Aβ40, which confirmed compound activity. Cell lysates were prepared and separated on a 4-20% Tris-glycine gel and probed with an anti-NICD antibody (Cell Signaling, #2421) specific for the cleaved NICD, or anti-GAPDH, which served as a loading control for each lane. NICD bands were then quantified by densitometry and an average of replicate values was compared to the vehicle controls."}, "[2]": {"test_system": "γ-secretase-dependent cleavage of E-cadherin", "assay": "γ-secretase-dependent cleavage of E-cadherin in A431 cells, western blotting", "format": "cell-based, Human", "settings": "overnight (16-18 h), then 6 h 1 μM staurosporine", "description": "To measure γ-secretase-dependent cleavage of E-cadherin, an assay similar to that described by Marambaud et al. (2002) EMBO 21: 1948-1956 was developed. Human A431 cells which endogenously express detectable levels of E-cadherin and cleave full length E-cadherin upon treatment with staurosporine are treated overnight (16-18 h) with either test compound or control γ-secretase inhibitor (DAPT). Cleavage of E-cadherin is induced by a 6 h treatment with 1 μM staurosporine. Cell lysates are analyzed for levels of γ-CTF by western blotting and protein bands are quantified by densitometry."}, "[3]": {"test_system": "ε-cleavage of endogenous E-cadherin", "settings": "cited from earlier work"}, "[4]": {"target": "GST-Pen2 (Homo sapiens, UniProt Q9NZ42)", "sequence (Q9NZ42 whole entry)": "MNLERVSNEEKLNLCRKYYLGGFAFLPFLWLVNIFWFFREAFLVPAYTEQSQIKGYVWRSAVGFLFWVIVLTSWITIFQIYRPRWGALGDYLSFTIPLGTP", "assay": "Surface plasmon resonance (SPR) assay, Biacore 2000", "settings": "equilibrium responses fit to 1:1 binding isotherm; estimated", "description": "A surface plasmon resonance (SPR) assay was performed using the Biacore™ 2000 system and control software (Biacore Life Sciences), essentially as described in Warnmark et al. (2001) J. Biol. Chem. 276:23397-23404. Compound 2 or L-685,458 (Sigma #L1790) were diluted 30 fold from a 25 mM stock in 100% DMSO, then each further diluted into running buffer containing 10 mM HEPES, 150 mM NaCl, 1% Triton X-100, pH 7.4. The compounds were run in a 3-fold dilution series over a GST-Pen2 or a free GST flow cell surface. The binding responses at equilibrium for each compound were fit to a 1:1 binding isotherm in order to estimate the binding affinities."}, "[5]": {"test_system": "gamma-secretase", "assay": "Sandwich ELISA of secreted Aβ from CHO-APPSwe cells", "format": "cell-based, Chinese Hamster", "settings": "18 h", "description": "For ELISA analysis, CHO-APPSwe cells were seeded at a density of 100K/well in 96-well plates and allowed to adhere overnight. Medium was removed and replaced with complete DMEM medium containing either vehicle alone (DMSO) or a dose-response of Compound 2 or GSI 1 (the gamma-secretase inhibitor designated Inhibitor 1 in Tian et al. (2002) J. Biol. Chem. 277:31499-31505). Cells were incubated with compounds for 18 h, medium collected, and levels of secreted Aβ determined as described below. Cytotoxicity was determined on each well to be less than 30% using an Alamar Blue assay (see US Published Application 2005/0070538).\nSecreted Aβ38 peptide was quantified using an ultra-sensitive sandwich ELISA assay kit (Meso Scale Detection catalog #K111FSE-2) and the Meso Scale Sector Imager 6000 for detection, according to the manufacturer's recommended protocol. Captured Aβ was quantified by comparing ECL signals of the samples to a standard curve (included on each plate) using synthetic Aβ prepared in complete DMEM medium. Aβ standard peptides were purchased from Bachem and stored at 0.5 mg/ml in hexafluoroisopropanol (HFIP) at −20° C.\nSecreted Aβ40, Aβ42, and total Aβ were measured using specific sandwich ELISAs. Aβ peptides were captured using either an Aβ40-selective monoclonal antibody (B113), an Aβ42-selective monoclonal antibody (A387), or a total Aβ (1-x) capture monoclonal antibody raised to the amino-terminal region (B436) (see PCT publication WO 04/018997).\nBriefly, 96-well white ELISA plates were coated with the appropriate capture antibody, wells were blocked with 1% BSA/TBS, and then samples were assayed in complete medium at an appropriate dilution so that the relative luminescent units (RLUs) were in the linear range of the standard curve. Following sample incubation for all ELISAs, plates were washed and exposed to an alkaline phosphatase (AP) conjugated secondary antibody. For Aβ40 and Aβ42, B436-AP was used as the second antibody in the sandwich ELISA. For the total Aβ ELISA, 4G8-biotin (Signet) (a monoclonal antibody that recognizes the Aβ17-24) was used in combination with strepavidin-AP as the detection complex. Thus, for this experiment, total Aβ includes Aβ peptides from 1-x, where x>24. Bound AP-conjugates were detected with CSPD-Sapphire II Luminescence Substrate (Applied Biosystems) and plates were read using a standard 96-well luminometer.\nCaptured Aβ was quantified by comparing RLU values of the samples to a standard curve (included on each plate) using synthetic Aβ prepared in complete media. Aβ standard peptides were purchased from Bachem and stored at 0.5 mg/ml in hexafluoroisopropanol (HFIP) at −20° C."}, "[6]": {"test_system": "gamma-secretase", "assay": "Immunoprecipitation and immunoblot analysis of Aβ in CHO-APPSwe conditioned medium", "format": "cell-based, Chinese Hamster", "settings": "18 h, Compound 2 0.3-1000 nM, GSI 1 3-1000 nM", "description": "For this analysis, CHO-APPSwe cells were treated with concentrations of Compound 2 ranging from 0.3 nM to 1000 nM, or with concentrations of a gamma-secretase inhibitor, GSI 1 (Tian et al. (2002) J. Biol. Chem. 277 (35), 31499-31505) ranging from 3 nM to 1000 nM, or with vehicle (0.12% DMSO), for 18 hours. The conditioned medium was collected and immunoprecipitated with the anti-Aβ1-12 antibody B436. Samples were denatured and electrophoresed on gels prepared according to Wiltfang et al. (1997) Electrophoresis 18:527-532, with the following improvements: the separating gel contained 12.5% instead of 15% acrylamide, the comb gel layer was omitted, and glycerol (25%) and DTT (100 mM) were substituted for sucrose and β-mercaptoethanol in the 2× sample buffer. Chemically synthesized Aβ1-37, Aβ1-38, Aβ1-40 and Aβ1-42 peptides (Bachem) were run as size standards. After electrophoresis, the peptides were transferred to nitrocellulose filters and immunoblotted with a biotinylated B436 antibody to detect the various Aβ alloforms."}, "[7]": {"test_system": "gamma-secretase", "assay": "Mass spectrometry (SELDI) analysis of secreted Aβ from CHO-APPSwe cells", "format": "cell-based, Chinese Hamster", "settings": "1 μM, 18 h", "description": "CHO-APPSwe cells were plated at 1 million cells per well in 6-well dishes and treated with complete DMEM medium containing either vehicle alone (DMSO), 1 μM Compound 2, or 1 μM GSI 1. Cells were incubated for 18 h, medium collected, and levels of secreted Aβ determined by mass spectrometry. Briefly, collected medium was immunoprecipitated overnight using antibody B436 coupled directly to Sepharose. Fifty ng of Aβ1-28 peptide was spiked into the medium as an internal standard. The Sepharose beads were then washed with TBS and bound Aβ was eluted with acetonitrile/0.1% trifluoroacetic acid. Eluate (3-6 μl) was spotted on NP20 chips (Ciphergen). Once the samples were dry, 20% CHCA matrix was spotted (1 μl) and allowed to dry. Chips were read on a SELDI Ciphergen mass spectrometer and Aβ peptides were identified by expected mass and comparison to standard purchased Aβ peptides (Bachem)."}, "[8]": {"settings": "to a lesser extent than Aβ37 and Aβ38"}},
  "data": [
    {"molecule": "C[C@H](NC(=O)Cc1cc(F)cc(F)c1)C(=O)N[C@H](C(=O)OC(C)(C)C)c1ccccc1", "note": "[DAPT, N—[N-(3,5-Difluorophenacetyl-L-alanyl)]S-phenylglycine t-butyl ester, reference compound]", "values": [
      {"measurement": "inhibition of NICD formation", "setting": "[1]; 1 μM", "result": "> 95", "unit": "%"},
      {"measurement": "inhibition of E-cadherin cleavage/processing (γ-CTF)", "setting": "[2]", "result": "completely inhibits"},
      {"measurement": "effect on E-cadherin CTF1 or CTF3", "setting": "[3]", "result": "no effect"},
      {"measurement": "formation of E-cadherin CTF2", "setting": "[3]", "result": "inhibit"}
    ]},
    {"molecule": "COc1cc(C)c(Nc2nc(-c3ccc(-n4cnc(C)c4)c(F)c3)cs2)cc1C(C)C", "note": "[Compound 2]", "values": [
      {"measurement": "Kd", "setting": "[4]", "result": 6.5, "unit": "µM"},
      {"measurement": "secreted Aβ40 level", "setting": "[5]; ELISA", "result": "concentration dependent decrease"},
      {"measurement": "secreted Aβ42 level", "setting": "[5]; ELISA", "result": "concentration dependent decrease"},
      {"measurement": "total Aβ level", "setting": "[5]; ELISA, Aβ 1-x, x>24", "result": "did not significantly change"},
      {"measurement": "secreted Aβ38 level", "setting": "[5]; ultra-sensitive sandwich ELISA", "result": "markedly increased"},
      {"measurement": "level of Aβ1-37 in conditioned medium", "setting": "[6]", "result": "increase"},
      {"measurement": "level of Aβ1-38 in conditioned medium", "setting": "[6]", "result": "increase"},
      {"measurement": "level of Aβ1-40 in conditioned medium", "setting": "[6]", "result": "lower"},
      {"measurement": "Aβ37 compared to vehicle treated cells", "setting": "[7]", "result": "increased"},
      {"measurement": "Aβ38 compared to vehicle treated cells", "setting": "[7]", "result": "increased"},
      {"measurement": "Aβ33 compared to vehicle treated cells", "setting": "[7]; [8]", "result": "increased"},
      {"measurement": "Aβ34 compared to vehicle treated cells", "setting": "[7]; [8]", "result": "increased"},
      {"measurement": "inhibition of Notch processing", "setting": "[1]; up to 30 μM", "result": "no detectable inhibition"},
      {"measurement": "inhibition of E-cadherin cleavage/processing (γ-CTF)", "setting": "[2]", "result": "no detectable inhibition"}
    ]},
    {"molecule": "C[C@H](NC(=O)Cc1cc(F)cc(F)c1)C(=O)N[C@H]1N=C(c2ccccc2)c2ccccc2N(C)C1=O", "note": "[Compound E]", "values": [
      {"measurement": "effect on E-cadherin CTF1 or CTF3", "setting": "[3]", "result": "no effect"},
      {"measurement": "formation of E-cadherin CTF2", "setting": "[3]", "result": "inhibit"}
    ]},
    {"molecule": "CC(C)C[C@H](NC(=O)[C@H](Cc1ccccc1)C[C@@H](O)[C@H](Cc1ccccc1)NC(=O)OC(C)(C)C)C(=O)N[C@@H](Cc1ccccc1)C(N)=O", "note": "[L-685,458]", "values": [
      {"measurement": "Kd", "setting": "[4]", "result": 1900, "unit": "µM"},
      {"measurement": "effect on E-cadherin CTF1 or CTF3", "setting": "[3]", "result": "no effect"},
      {"measurement": "formation of E-cadherin CTF2", "setting": "[3]", "result": "inhibit"}
    ]}
  ]
}
